Measurements taken from ChEMBL document CHEMBL3862012, “Methylene versus carbonyl bridge in the structure of new tubulin polymerization inhibitors with tricyclic A-rings” (Bioorg Med Chem, 2016).

Experiments:
[1] = Inhibition of sheep brain tubulin polymerization by DAPI staining-based fluorimetric method; parameters: species or system Ovis aries
[2] = Cytotoxicity against human K562 cells assessed as growth inhibition at 10 uM after 48 hrs by SRB assay relative to control; assay type: functional; conditions: K562, 48 h, read-out: GI
[3] = Cytotoxicity against human MOLT4 cells assessed as growth inhibition at 10 uM after 48 hrs by SRB assay relative to control; assay type: functional; conditions: MOLT-4, 48 h, read-out: GI
[4] = Cytotoxicity against human RPMI8226 cells assessed as growth inhibition at 10 uM after 48 hrs by SRB assay relative to control; assay type: functional; conditions: RPMI-8226, 48 h, read-out: GI
[5] = Cytotoxicity against human SR cells assessed as growth inhibition at 10 uM after 48 hrs by SRB assay relative to control; assay type: functional; conditions: read-out: GI
[6] = Cytotoxicity against human HOP92 cells assessed as growth inhibition at 10 uM after 48 hrs by SRB assay relative to control; assay type: functional; conditions: HOP-92, 48 h, read-out: GI
[7] = Cytotoxicity against human NCI-H226 cells assessed as growth inhibition at 10 uM after 48 hrs by SRB assay relative to control; assay type: functional; conditions: NCI-H226, 48 h, read-out: GI
[8] = Cytotoxicity against human SNB19 cells assessed as growth inhibition at 10 uM after 48 hrs by SRB assay relative to control; assay type: functional; conditions: SNB-19, 48 h, read-out: GI
[9] = Cytotoxicity against human MALME-3M cells assessed as growth inhibition at 10 uM after 48 hrs by SRB assay relative to control; assay type: functional; conditions: read-out: GI
[10] = Cytotoxicity against human SK-MEL-2 cells assessed as growth inhibition at 10 uM after 48 hrs by SRB assay relative to control; assay type: functional; conditions: SK-MEL-2, 48 h, read-out: GI
[11] = Cytotoxicity against human SK-MEL-5 cells assessed as growth inhibition at 10 uM after 48 hrs by SRB assay relative to control; assay type: functional; conditions: SK-MEL-5, 48 h, read-out: GI
[12] = Cytotoxicity against human UACC257 cells assessed as growth inhibition at 10 uM after 48 hrs by SRB assay relative to control; assay type: functional; conditions: UACC-257, 48 h, read-out: GI
[13] = Cytotoxicity against human IGROV1 cells assessed as growth inhibition at 10 uM after 48 hrs by SRB assay relative to control; assay type: functional; conditions: IGROV-1, 48 h, read-out: GI
[14] = Cytotoxicity against human NCI-ADR-RES cells assessed as growth inhibition at 10 uM after 48 hrs by SRB assay relative to control; assay type: functional; conditions: read-out: GI
[15] = Cytotoxicity against human SKOV3 cells assessed as growth inhibition at 10 uM after 48 hrs by SRB assay relative to control; assay type: functional; conditions: SK-OV-3, 48 h, read-out: GI
[16] = Cytotoxicity against human Caki1 cells assessed as growth inhibition at 10 uM after 48 hrs by SRB assay relative to control; assay type: functional; conditions: CAKI-1, 48 h, read-out: GI
[17] = Cytotoxicity against human SN12C cells assessed as growth inhibition at 10 uM after 48 hrs by SRB assay relative to control; assay type: functional; conditions: read-out: GI
[18] = Cytotoxicity against human PC3 cells assessed as growth inhibition at 10 uM after 48 hrs by SRB assay relative to control; assay type: functional; conditions: PC-3, 48 h, read-out: GI
[19] = Cytotoxicity against human DU145 cells assessed as growth inhibition at 10 uM after 48 hrs by SRB assay relative to control; assay type: functional; conditions: DU-145, 48 h, read-out: GI
[20] = Cytotoxicity against human MDA-MB-468 cells assessed as growth inhibition at 10 uM after 48 hrs by SRB assay relative to control; assay type: functional; conditions: MDA-MB-468, 48 h, read-out: GI
[21] = Cytotoxicity against human CCRF-CEM cells assessed as growth inhibition after 48 hrs by SRB assay; assay type: functional
[22] = Cytotoxicity against human HL-60(TB) cells assessed as growth inhibition after 48 hrs by SRB assay; assay type: functional; conditions: HL-60, 48 h
[23] = Cytotoxicity against human K562 cells assessed as growth inhibition after 48 hrs by SRB assay; assay type: functional; conditions: K562, 48 h
[24] = Cytotoxicity against human SR cells assessed as growth inhibition after 48 hrs by SRB assay; assay type: functional
[25] = Cytotoxicity against human NCI-H460 cells assessed as growth inhibition after 48 hrs by SRB assay; assay type: functional; conditions: NCI-H460, 48 h
[26] = Cytotoxicity against human NCI-H522 cells assessed as growth inhibition after 48 hrs by SRB assay; assay type: functional; conditions: NCI-H522, 48 h
[27] = Cytotoxicity against human HCC2998 cells assessed as growth inhibition after 48 hrs by SRB assay; assay type: functional; conditions: HCC 2998, 48 h
[28] = Cytotoxicity against human HT-29 cells assessed as growth inhibition after 48 hrs by SRB assay; assay type: functional; conditions: HT-29, 48 h
[29] = Cytotoxicity against human SW620 cells assessed as growth inhibition after 48 hrs by SRB assay; assay type: functional; conditions: SW-620, 48 h
[30] = Cytotoxicity against human SF268 cells assessed as growth inhibition after 48 hrs by SRB assay; assay type: functional; conditions: SF-268, 48 h
[31] = Cytotoxicity against human SF295 cells assessed as growth inhibition after 48 hrs by SRB assay; assay type: functional; conditions: SF-295, 48 h
[32] = Cytotoxicity against human SNB75 cells assessed as growth inhibition after 48 hrs by SRB assay; assay type: functional; conditions: SNB-75, 48 h
[33] = Cytotoxicity against human SK-MEL-2 cells assessed as growth inhibition after 48 hrs by SRB assay; assay type: functional; conditions: SK-MEL-2, 48 h
[34] = Cytotoxicity against human UACC62 cells assessed as growth inhibition after 48 hrs by SRB assay; assay type: functional; conditions: UACC-62, 48 h
[35] = Cytotoxicity against human LOXIMVI cells assessed as growth inhibition after 48 hrs by SRB assay; assay type: functional; conditions: LOX IMVI
[36] = Cytotoxicity against human SK-MEL-5 cells assessed as growth inhibition after 48 hrs by SRB assay; assay type: functional; conditions: SK-MEL-5, 48 h
[37] = Cytotoxicity against human OVCAR3 cells assessed as growth inhibition after 48 hrs by SRB assay; assay type: functional; conditions: OVCAR-3, 48 h
[38] = Cytotoxicity against human OVCAR8 cells assessed as growth inhibition after 48 hrs by SRB assay; assay type: functional; conditions: OVCAR-8, 48 h
[39] = Cytotoxicity against human NCI-ADR-RES cells assessed as growth inhibition after 48 hrs by SRB assay; assay type: functional
[40] = Cytotoxicity against human RXF393 cells assessed as growth inhibition after 48 hrs by SRB assay; assay type: functional; conditions: RXF 393, 48 h
[41] = Cytotoxicity against human UO31 cells assessed as growth inhibition after 48 hrs by SRB assay; assay type: functional; conditions: UO-31, 48 h
[42] = Cytotoxicity against human ACHN cells assessed as growth inhibition after 48 hrs by SRB assay; assay type: functional
[43] = Cytotoxicity against human PC3 cells assessed as growth inhibition after 48 hrs by SRB assay; assay type: functional; conditions: PC-3, 48 h

COc1ccc(CN2c3ccccc3Sc3ccccc32)cc1F
IC50 [1]: 20700 nM
inhibition of growth at 10 µM [2]: 89%
inhibition of growth at 10 µM [3]: 73%
inhibition of growth at 10 µM [4]: 79%
inhibition of growth at 10 µM [5]: 83%
inhibition of growth at 10 µM [6]: 50%
inhibition of growth at 10 µM [7]: 44%
inhibition of growth at 10 µM [8]: 65%
inhibition of growth at 10 µM [9]: 67%
inhibition of growth at 10 µM [10]: 60%
inhibition of growth at 10 µM [11]: 78%
inhibition of growth at 10 µM [12]: 45%
inhibition of growth at 10 µM [13]: 64%
inhibition of growth at 10 µM [14]: 97%
inhibition of growth at 10 µM [15]: 83%
inhibition of growth at 10 µM [16]: 46%
inhibition of growth at 10 µM [17]: 55%
inhibition of growth at 10 µM [18]: 79%
inhibition of growth at 10 µM [19]: 86%
inhibition of growth at 10 µM [20]: 100%
GI50 [21]: 428 nM
GI50 [22]: 262 nM
GI50 [23]: 369 nM
GI50 [24]: 354 nM
GI50 [25]: 389 nM
GI50 [26]: 300 nM
GI50 [27]: 1130 nM
GI50 [28]: 331 nM
GI50 [29]: 384 nM
GI50 [30]: 1430 nM
GI50 [31]: 333 nM
GI50 [32]: 204 nM
GI50 [33]: 405 nM
GI50 [34]: 499 nM
GI50 [35]: 722 nM
GI50 [36]: 488 nM
GI50 [37]: 264 nM
GI50 [38]: 663 nM
GI50 [39]: 326 nM
GI50 [40]: 304 nM
GI50 [41]: 916 nM
GI50 [42]: 1220 nM
GI50 [43]: 485 nM
